“Also recorded” adds a separate entry of the source.
Target: T1, EphA4 (Rattus norvegicus, UniProt D3ZZK3)
T1 construct: endogenous in cells; host or cells: primary rat cortical neurons (A5), primary rat hippocampal neurons (A7)
Assay: Ephrin-A1-induced EphA4 cluster assay in cultured hippocampal neurons
Assay type: cell-based
Conditions: for potency as EphA4 inhibitor: same assay system, no data given
Protocol: For EphA4 clustering, neurons were stained with anti-EphA4 and anti-Tau-1 antibodies. For the growth cone collapse assay, neurons were stained with Alexa Fluor 555-conjugated phalloidin (Molecular Probes) for filamentous actin and anti-Tau-1 antibody for axons. Collapsed growth cones were scored in a double-blinded manner. The experiments were repeated at least 3 times, and >50 neurons were analyzed for each experiment. Data are presented as mean±SEM.
Rat hippocampal neurons were seeded on 48-well plates coated with poly-D-lysine (50 μg/mL) at 6000 cells per well. Neurons were incubated with Neurobasal medium (Invitrogen) supplemented with 2% B27 (Invitrogen). […] Neurons were then immunostained with anti-EphA4 and anti-Tau-1 antibodies. The cellular imaging and quantification of EphA4 clusters was performed using IN Cell Analyzer 6000 high content assay system (GE Healthcare). EphA4 clusters were quantified by calculating the proportion of total area of EphA4 clusters on axons against Tau positive area. Statistical analysis was performed with one-way ANOVA followed by Newman-Keuls Multiple Comparison Test (Prism 5 GraphPad Software).

T1 sequence (D3ZZK3 20-986): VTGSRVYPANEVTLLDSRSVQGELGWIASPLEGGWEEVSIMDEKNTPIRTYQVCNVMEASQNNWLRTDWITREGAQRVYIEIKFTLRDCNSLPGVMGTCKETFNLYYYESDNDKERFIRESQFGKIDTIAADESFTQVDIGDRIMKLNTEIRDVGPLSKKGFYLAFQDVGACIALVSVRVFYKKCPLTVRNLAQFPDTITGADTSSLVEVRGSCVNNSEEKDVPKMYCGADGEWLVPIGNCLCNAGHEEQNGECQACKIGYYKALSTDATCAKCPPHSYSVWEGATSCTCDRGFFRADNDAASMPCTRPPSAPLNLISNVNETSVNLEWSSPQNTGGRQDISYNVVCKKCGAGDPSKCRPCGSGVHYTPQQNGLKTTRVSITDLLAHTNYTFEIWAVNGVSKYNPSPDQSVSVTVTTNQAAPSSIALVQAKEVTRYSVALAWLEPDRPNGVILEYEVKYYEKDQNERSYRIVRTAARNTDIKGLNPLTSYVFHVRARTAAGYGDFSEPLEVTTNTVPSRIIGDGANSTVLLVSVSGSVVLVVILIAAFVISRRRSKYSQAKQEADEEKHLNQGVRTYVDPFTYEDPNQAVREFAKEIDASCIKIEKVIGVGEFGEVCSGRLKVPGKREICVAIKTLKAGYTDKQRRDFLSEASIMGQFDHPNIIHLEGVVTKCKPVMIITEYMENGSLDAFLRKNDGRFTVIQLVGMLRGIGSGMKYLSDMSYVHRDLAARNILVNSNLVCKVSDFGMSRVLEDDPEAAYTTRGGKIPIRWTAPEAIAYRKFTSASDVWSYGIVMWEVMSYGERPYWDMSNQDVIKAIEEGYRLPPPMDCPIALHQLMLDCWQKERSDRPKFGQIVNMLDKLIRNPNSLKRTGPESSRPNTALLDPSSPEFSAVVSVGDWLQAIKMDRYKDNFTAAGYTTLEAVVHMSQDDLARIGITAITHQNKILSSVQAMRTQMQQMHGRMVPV

SMILES: CCC1CN2CCC3(C(=O)N(CCCCCCCCCOc4ccc(OCc5ccccc5)cc4)c4ccccc43)C2CC1C(=COC)C(=O)OC (stereo not drawn) [RHY-55]
- potency on EphA4 inhibition (EphA4 clusters) compared to Rhy (words) (30 μM): higher potency on EphA4 inhibition

SMILES: CC[C@H]1CN2CC[C@]3(C(=O)N(CCCCCBr)c4ccccc43)[C@@H]2C[C@@H]1/C(=C\OC)C(=O)OC [RHY-23]
- potency on EphA4 inhibition (EphA4 clusters) compared to Rhy (words) (30 μM): higher potency on EphA4 inhibition

SMILES: CCC1CN2CCC3(C(=O)N(CCCCCCCCOc4ccc(OCc5ccccc5)cc4)c4ccccc43)C2CC1C(=COC)C(=O)OC (stereo not drawn) [RHY-49]
- potency on EphA4 inhibition (EphA4 clusters) compared to Rhy (words) (30 μM): higher potency on EphA4 inhibition

SMILES: CCC1CN2CCC3(C(=O)N(CCCCCCCl)c4ccccc43)C2CC1C(=COC)C(=O)OC (stereo not drawn) [RHY-63]
- potency as EphA4 inhibitor: tested and verified

SMILES: CC[C@H]1CN2CC[C@]3(C(=O)N(CCCCCCOc4ccc(OCc5ccccc5)cc4)c4ccccc43)[C@@H]2C[C@@H]1/C(=C\OC)C(=O)OC [RHY-42]
- potency on EphA4 inhibition (EphA4 clusters) compared to Rhy (words) (30 μM): higher potency on EphA4 inhibition

SMILES: CCC1CN2CCC3(C(=O)N(CC=Cc4ccccc4)c4ccccc43)C2CC1C(=COC)C(=O)OC (stereo not drawn) [RHY-9]
- inhibitory effect on EphA4 cluster formation (50 μM): most significant
- potency on EphA4 inhibition (EphA4 clusters) compared to Rhy (words) (50 μM): significantly reduced the EphA4 clusters compared to Rhy

SMILES: CCC1CN2CCC3(C(=O)N(CCCCCCCOc4ccc(OC)c(OC)c4)c4ccccc43)C2CC1C(=COC)C(=O)OC (stereo not drawn) [RHY-43]
- potency on EphA4 inhibition (EphA4 clusters) compared to Rhy (words) (30 μM): more potent effect on EphA4 inhibition than Rhy

SMILES: CCC1CN2CCC3(C(=O)N(CCCCCCCCBr)c4ccccc43)C2CC1C(=COC)C(=O)OC (stereo not drawn) [RHY-34]
- potency on EphA4 inhibition (EphA4 clusters) compared to Rhy (words) (30 μM): higher potency on EphA4 inhibition

SMILES: CCC1CN2CCC3(C(=O)N(CCCCCCCNCCCn4ccnc4)c4ccccc43)C2CC1C(=COC)C(=O)OC (stereo not drawn) [RHY-47]
- potency on EphA4 inhibition (EphA4 clusters) compared to Rhy (words) (50 μM): higher potency on EphA4 inhibition

SMILES: CCC1CN2CCC3(C(=O)N(CCCCCCCCCCCl)c4ccccc43)C2CC1C(=COC)C(=O)OC (stereo not drawn) [RHY-65]
- potency as EphA4 inhibitor: tested and verified

SMILES: CCC1CN2CCC3(C(=O)N(CCCCCCCCCCl)c4ccccc43)C2CC1C(=COC)C(=O)OC (stereo not drawn) [RHY-62]
- potency as EphA4 inhibitor: tested and verified

SMILES: CCC1CN2CCC3(C(=O)N(CCCCCCCCCBr)c4ccccc43)C2CC1C(=COC)C(=O)OC (stereo not drawn) [RHY-31]
- potency on EphA4 inhibition (EphA4 clusters) compared to Rhy (words) (30 μM): higher potency on EphA4 inhibition

SMILES: CCC1CN2CCC3(C(=O)N(CCCCCCOc4ccc(OC)c(OC)c4)c4ccccc43)C2CC1C(=COC)C(=O)OC (stereo not drawn) [RHY-39]
- potency on EphA4 inhibition (EphA4 clusters) compared to Rhy (words) (30 μM): more potent effect on EphA4 inhibition than Rhy

SMILES: CCC1CN2CCC3(C(=O)N(CCCCCCCCOc4ccc(O)cc4)c4ccccc43)C2CC1C(=COC)C(=O)OC (stereo not drawn) [RHY-54]
- potency on EphA4 inhibition (EphA4 clusters) compared to Rhy (words) (30 μM): significantly more potent than Rhy; also recorded: more potent effect on EphA4 inhibition than Rhy

SMILES: C=CCN1C(=O)C2(CCN3CC(CC)C(C(=COC)C(=O)OC)CC32)c2ccccc21 (stereo not drawn) [RHY-17]
- inhibitory effect on EphA4 cluster formation (50 μM): most significant
- potency on EphA4 inhibition (EphA4 clusters) compared to Rhy (words) (50 μM): significantly reduced the EphA4 clusters compared to Rhy

SMILES: CCC1CN2CCC3(C(=O)N(CCCCCCCCl)c4ccccc43)C2CC1C(=COC)C(=O)OC (stereo not drawn) [RHY-64]
- potency as EphA4 inhibitor: tested and verified

SMILES: CCC1CN2CCC3(C(=O)N(CCCCCCCCCCCCCl)c4ccccc43)C2CC1C(=COC)C(=O)OC (stereo not drawn) [RHY-67]
- potency as EphA4 inhibitor: tested and verified

SMILES: CC[C@H]1CN2CC[C@]3(C(=O)N(CCCCCCCCOC(=O)c4ccc(OC)c(OC)c4)c4ccccc43)[C@@H]2C[C@@H]1/C(=C\OC)C(=O)OC [RHY-36]
- potency on EphA4 inhibition (EphA4 clusters) compared to Rhy (words) (50 μM): more potent activity than Rhy; also recorded: more potent effect on EphA4 inhibition than Rhy

SMILES: CCC1CN2CCC3(C(=O)N(CCCCCCCBr)c4ccccc43)C2CC1C(=COC)C(=O)OC (stereo not drawn) [RHY-35]
- potency on EphA4 inhibition (EphA4 clusters) compared to Rhy (words) (30 μM): higher potency on EphA4 inhibition
